The source made the active and inactive calls. No cut-off for these calls is given here.
Key:
Beta-secretase 1 [1] = target: T1, Beta-secretase 1 (Homo sapiens, UniProt P56817); assay: Inhibition of human BACE1
Beta-secretase 1 [2] = target: T1, Beta-secretase 1; assay: Inhibition of human BACE1 expressed in HEK293 cells assessed as reduction in soluble APPbeta level after 4 hrs by Western blot analysis; format: cell-based; parameters: concentration or dose not given beside the values
Beta-secretase 1 [3] = target: T1, Beta-secretase 1; assay: Inhibition of human BACE1 expressed in HEK293 cells assessed as reduction in soluble APPalpha level after 4 hrs by Western blot analysis; format: cell-based

T1 sequence (P56817 whole entry): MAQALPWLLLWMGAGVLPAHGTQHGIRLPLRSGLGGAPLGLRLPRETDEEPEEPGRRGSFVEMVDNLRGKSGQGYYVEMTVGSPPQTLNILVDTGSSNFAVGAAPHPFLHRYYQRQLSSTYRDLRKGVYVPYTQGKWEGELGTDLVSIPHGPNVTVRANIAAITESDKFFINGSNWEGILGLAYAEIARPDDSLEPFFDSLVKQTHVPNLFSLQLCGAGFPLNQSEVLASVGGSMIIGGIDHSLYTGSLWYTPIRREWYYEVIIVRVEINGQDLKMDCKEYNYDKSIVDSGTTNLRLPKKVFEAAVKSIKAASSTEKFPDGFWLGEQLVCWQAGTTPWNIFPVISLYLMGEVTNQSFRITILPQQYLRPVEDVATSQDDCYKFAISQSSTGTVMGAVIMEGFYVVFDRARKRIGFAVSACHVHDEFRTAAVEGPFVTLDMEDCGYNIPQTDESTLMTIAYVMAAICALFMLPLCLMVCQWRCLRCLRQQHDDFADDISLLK

Compound	IC50 (Beta-secretase 1 [1])	Ki (Beta-secretase 1 [1])	Activity (Beta-secretase 1 [2])	Activity (Beta-secretase 1 [3])
C=C(C)[C@H](CCC(C)(C)O)Cc1c(O)cc(OC)c2c1O[C@H](c1ccc(O)cc1O)CC2=O [KURARINOL]	39.2 µM			
C=C(C)[C@H](CC=C(C)C)Cc1c(O)cc(O)c2c1O[C@H](c1ccccc1O)CC2=O [KUSHENOL A]	2.6 µM	3 µM	61.8%	Active
C=C(C)[C@H](CCC(C)(C)O)Cc1c(O)cc(O)c2c1O[C@H](c1ccccc1O)CC2=O [KUSHENOL T]	36.8 µM			
C=C(C)[C@H](CC=C(C)C)Cc1c(O)cc(O)c2c1O[C@H](c1ccc(O)cc1OC)CC2=O [LEACHIANONE A]	8.4 µM	3.9 µM	40.7%	Dose-dependent effect
C=C(C)[C@H](CC=C(C)C)Cc1c(O)cc(O)c2c1O[C@H](c1ccc(O)cc1O)CC2=O [SOPHORAFLAVANONE G]	5.2 µM	1.1 µM	56%	Active

The next lines start with the values.

IC50 (Beta-secretase 1 [1])	Ki (Beta-secretase 1 [1])	Activity (Beta-secretase 1 [2])	Activity (Beta-secretase 1 [3])	Compound
6.7 µM	10.6 µM	51.1%	Active	C=C(C)[C@H](CC=C(C)C)Cc1c(O)cc(OC)c2c1O[C@H](c1ccc(O)cc1OC)CC2=O
27.7 µM				COc1cc(O)c(CC=C(C)C)c2c1C(=O)CC(c1ccc(O)cc1)O2 (stereo not drawn) [ISOXANTHOHUMOL]
3.3 µM	7.2 µM	51.9%	Active	C=C(C)C(CC=C(C)C)Cc1c(O)cc(OC)c2c1O[C@H](c1ccc(O)cc1O)CC2=O (stereo partly drawn) [KURARINONE]
